According to US20210196711A1, “LYSINE-SPECIFIC HISTONE DEMETHYLASE AS A NOVEL THERAPEUTIC TARGET IN MYELOPROLIFERATIVE NEOPLASMS” (Imago Biosciences, Inc., priority 2015, published 2021):
Where a name gives a salt, the structure may show the parent alone.

Assays:
[1] = system: JAK2^V617F knock-in mouse model of myeloproliferative neoplasm (MPN); test: JAK2V617F knock-in mouse model of myeloproliferative neoplasm; assay type: in vivo; conditions: JAK2^V617F mice, 25 mg/kg/day, 56 days, compared to vehicle
Method: Compound [IMG 7289; need number or name inserted] was evaluated in the JAK2^V617F knock-in mouse model of myeloproliferative neoplasm (MPN). The procedure of Hasan et al. Blood, 2013, 122, 1464-1477, was followed. (See also Mullally et al. Cancer Cell 2010, 17, 584-596.) Animals bearing the JAK2^V617F were treated with Compound 2 tosylate (25 mg/kg/day) or vehicle for a total of 56 days. Blood samples were taken at the indicated time points and analyzed for hematocrit, white blood cell count (WBC) and platelets as described in Hasan et al. Non-drug-treated animals expressing the JAK2^V617F mutation manifested elevated levels of platelets, WBCs, and hematocrit as compared to wild-type animals.

[2] = primary myelofibrosis patients, 50 to 100 mg/day in combination with prednisone; cited from earlier work

CN1CCN(C(=O)[C@H](CCCN[C@@H]2C[C@H]2c2ccc(F)cc2)NC(=O)c2ccc(-n3ccnn3)cc2)CC1 [Compound 2 tosylate]
hematocrit [1]: reduction
platelet levels [1]: reduction
white blood cell count [1]: reduction

O=C1CCC(N2C(=O)c3ccccc3C2=O)C(=O)N1 (centres unmarked) [Thalidomide]
patients with improved anemia and thrombocytopenia [2]: approximately 60%
patients with reduced spleen size [2]: approximately 20%
